In one series the target is Cytochrome P450 2D6 (Homo sapiens, UniProt P10635). In words: Inhibition of CYP2D6 in human liver microsomes incubated for 15 to 40 mins in presence of NADPH. In kind it is ADME, Microsome.
Series [1] is described as follows: Fold resistance, ratio of EC50 for antiviral activity against drug-resistant HIV-1 Y181C mutant infected in human MT4 cells to EC50 for antiviral activity against […] HIV-1 infected in human MT4 cells. In kind it is functional.
Series [2] is described as follows: Fold resistance, ratio of EC50 for antiviral activity against drug-resistant HIV-1 L100I mutant infected in human MT4 cells to EC50 for antiviral activity against […] HIV-1 infected in human MT4 cells. In kind it is functional.
Series [3] can be described thus: Fold resistance, ratio of EC50 for antiviral activity against drug-resistant HIV-1 K103 N mutant infected in human MT4 cells to EC50 for antiviral activity against […] HIV-1 infected in human MT4 cells. In kind it is functional.
Series [4] has as its system Human immunodeficiency virus 1. In words: Antiviral activity against drug-resistant HIV-1 K103 N mutant infected in human MT4 cells assessed as reduction in virus-induced cytopathic effect incubated for 5 days by MTT assay. The following applies: Human immunodeficiency virus 1, K103 N mutant, MT4, 120 h. Type of series: functional, organism-based.
Series [5] is described as follows: Fold resistance, ratio of EC50 for antiviral activity against drug-resistant HIV-1 E138K mutant infected in human MT4 cells to EC50 for antiviral activity against […] HIV-1 infected in human MT4 cells. In kind it is functional.
Series [6] concerns Human immunodeficiency virus 1. Description: Antiviral activity against drug-resistant HIV-1 Y188L mutant infected in human MT4 cells assessed as reduction in virus-induced cytopathic effect incubated for 5 days by MTT assay. Type of series: functional, organism-based. To be noted: Human immunodeficiency virus 1, Y188L mutant, MT4, 120 h.
Series [7] has as its system Human immunodeficiency virus 1. In words: Antiviral activity against drug-resistant HIV-1 Y181C mutant infected in human MT4 cells assessed as reduction in virus-induced cytopathic effect incubated for 5 days by MTT assay. To be noted: Human immunodeficiency virus 1, Y181C mutant, MT4, 120 h. In kind it is functional, organism-based.
Series [8] in a line: Fold resistance, ratio of EC50 for antiviral activity against drug-resistant HIV-1 Y188L mutant infected in human MT4 cells to EC50 for antiviral activity against […] HIV-1 infected in human MT4 cells. In kind it is functional.
In series [9] the target is Human immunodeficiency virus type 1 reverse transcriptase (Human immunodeficiency virus 1, UniProt Q72547). Description: Inhibition of recombinant wild-type p66/p51 HIV-1 reverse transcriptase incubated for 40 mins by picogreen dye-based spectrofluorometric analysis.
The test system of series [10] is Human immunodeficiency virus 1. Description: Antiviral activity against drug-resistant HIV-1 L100I mutant infected in human MT4 cells assessed as reduction in virus-induced cytopathic effect incubated for 5 days by MTT assay. In kind it is functional, organism-based. To be noted: Human immunodeficiency virus 1, L100I mutant, MT4, 120 h. (Protection from cytopathic effect is a common read-out in antiviral testing.)

Series [11] relates to Human immunodeficiency virus 1. Description: Antiviral activity against drug-resistant HIV-1 E138K mutant infected in human MT4 cells assessed as reduction in virus-induced cytopathic effect incubated for 5 days by MTT assay. Type of series: functional, organism-based. The following applies: Human immunodeficiency virus 1, E138K mutant, MT4, 120 h.
Series [12] is described as follows: Cytotoxicity against human MT4 cells assessed as cell growth inhibition incubated for 5 days by MTT assay. Type of series: toxicity, cell-based. To be noted: time 5 day. In general terms: Tetrazolium assays rely on reduction of a dye to a coloured formazan, in cell work by metabolically active cells.
Series [13] in a line: Selectivity index, ratio of CC50 for human MT4 cells to EC50 for antiviral activity against NNRTI resistant HIV-1 infected in human MT4 cells. To be noted: read-out: Ratio CC50/EC50. Type of series: toxicity, cell-based.
For series [14], the system named is Human immunodeficiency virus 1. In words: Antiviral activity against […] HIV-1 infected in human MT4 cells assessed as reduction in virus-induced cytopathic effect incubated for 5 days by MTT assay. Type of series: functional, organism-based. The following applies: Human immunodeficiency virus 1, MT4, 120 h.

Cytochrome P450 2D6, sequence (P10635 whole entry): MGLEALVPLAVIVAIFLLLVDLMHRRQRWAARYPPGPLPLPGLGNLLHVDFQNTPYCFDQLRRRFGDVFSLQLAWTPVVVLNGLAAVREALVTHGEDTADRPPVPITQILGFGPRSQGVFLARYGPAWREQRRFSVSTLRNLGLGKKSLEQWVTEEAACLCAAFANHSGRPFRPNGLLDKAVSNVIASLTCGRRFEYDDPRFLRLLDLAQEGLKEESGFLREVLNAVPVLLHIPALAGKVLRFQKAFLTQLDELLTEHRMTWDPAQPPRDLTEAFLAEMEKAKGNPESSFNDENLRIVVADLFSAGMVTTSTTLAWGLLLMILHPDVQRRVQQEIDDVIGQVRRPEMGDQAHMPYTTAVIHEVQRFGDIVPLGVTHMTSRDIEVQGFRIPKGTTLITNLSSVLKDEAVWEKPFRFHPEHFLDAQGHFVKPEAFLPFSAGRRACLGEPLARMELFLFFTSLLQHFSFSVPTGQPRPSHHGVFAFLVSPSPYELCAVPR

As usually defined, the IC50 is the concentration that inhibits the measured activity by half. As to `COc1ccc2c(c1)[C@]13CCCC[C@@H]1[C@H](C2)N(C)CC3` [DEXTROMETHORPHAN], the IC50 on Cytochrome P450 2D6 was found to be 0.0408 µM.
The EC50 is the concentration needed to bring the measured effect to its halfway point. What is called CC50 is the concentration giving 50% cytotoxicity. Turning to `Cc1c(C(C#N)c2cccc(Br)c2)nc(SC(C)C)[nH]c1=O` (stereo not given), the “Ratio EC50” value is given as 23 in [1]; 26 in series [2]; over 170 in series [3]; 3 in series [5]; over 445 in [8]. In addition, the EC50 was 47.6 µM in [4]; over 125 µM in series [6]; 6.43 µM in series [7]; 7.37 µM in series [10]; 0.71 µM in [11]; 0.28 µM in series [14]. The IC50 in series [9] worked out at 0.57 µM. The CC50 at 120 h in [12] is 125 µM. Further, the selectivity ratio in series [13] stood at 443.

For the origin of these results see ChEMBL document CHEMBL5137044, “Expansion of the S-CN-DABO scaffold to exploit the impact on inhibitory activities against the non-nucleoside HIV-1 reverse transcriptase” (Eur J Med Chem, 2022).
